Results from BindingDB's records for doi:10.1016/j.bmc.2017.06.049 (Federal University of Alagoas, 2017).

Assay: Inhibition of Chikungunya virus nsP2 protease infected in African green monkey Vero cells assessed as inhibition of viral-induced cytopathic effect by titration assay

| Structure (SMILES) | EC50 |
| --- | --- |
| CCOc1ccc(/C=N/NC(=O)C2CC2c2ccc(C(C)(C)C)cc2)cc1OCC (configuration not stated) | 5 µM |
| CCOc1ccc(/C=N/NC(=O)/C=C/Cc2ccc(C(C)(C)C)cc2)cc1OCC | 3.2 µM |
